Measured values: patent US20080293820A1, “METHODS FOR IMPROVING PHYSICAL FUNCTION IN FIBROMYALGIA” (Cypress Bioscience, Inc., priority 2007, published 2008)
Where a name gives a salt, the structure may show the parent alone.

Test system: patients who meet the 1990 ACR criteria for fibromyalgia syndrome
Test: Example 2: multicenter, double-blind, randomized, placebo-controlled monotherapy study of milnacipran for treatment of fibromyalgia (1196 patients)
Format: in vivo, human
Design: Mean Change from Baseline in PFI SF-36 domain score / Mean Change from Baseline in ROLP SF-36 domain score / Mean Change from Baseline in PAIN SF-36 domain score / Mean Change from Baseline in GHP SF-36 domain score: scale not given here
Details: for Composite Pain: number of responders / Composite Syndrome: number of responders / PGIC Component: number of responders / Pain Component: number of responders / SF36 PCS Component: number of responders: 100 mg (399); for time-weighted average (AUC) of SF-36 PCS Scores, Difference from Placebo / time-weighted average (AUC) of SF-36 PCS Scores, LS Mean: Tx3-Tx15, ANCOVA model
Experimental: The primary outcome was a composite responder analysis assessing response rates of two doses (100 mg/day and 200 mg/day) of milnacipran as compared with placebo at Visit Tx15 (week 15).
This was a multicenter, randomized, double-blind, placebo-controlled three-arm study designed which enrolled 1196 patients who meet the 1990 ACR criteria for fibromyalgia syndrome (history of widespread pain and pain in 11 of 18 tender point sites on digital palpation), as well as the more detailed admission criteria outlined in the protocol.
Patients were randomized to receive placebo, 100 mg/day milnacipran or 200 mg/day milnacipran in a ratio of 1:1:1 (placebo=401 patients, 100 mg/day=399 patients, 200 mg/day=396 patients). The patients assigned to the two active treatment arms received a total of 12 weeks of stable-dose milnacipran exposure after the 3 weeks of dosage escalation steps, for a total of 15 weeks of drug exposure. All randomized medications (placebo and milnacipran) were administered twice a day (BID).
The primary efficacy assessment of this study was a composite responder status defined by three domains of interest evaluated at visit Tx15. The domains measured were
1) pain (measured by an electronic diary in the morning as a daily recall pain score); 2) patient global (measured by the PGIC, 1-7 scale); 3) physical function (measured by the SF-36 PCS).
The secondary efficacy parameters were time-weighted average (AUC) of the weekly average PED morning recall pain scores for Weeks 4 through 15, PGIC, and SF-36 PCS for Visit Tx3 to Visit Tx15.
The physical function domain for response analysis was measured by the Physical Component Summary of SF-36 (SF-36 PCS). The SF-36 is a brief, well-established, self-administered patient questionnaire for the assessment of health status, functional status, and quality of life. The SF-36 measures eight domains of health status: physical functioning, role limitations due to physical problems, bodily pain, general health perceptions, energy/vitality, social functioning, role limitations due to emotional problems, and mental health. An SF-36 PCS score and a mental component summary (MCS) score can be calculated by combining and weighting the various individual scales. The PCS and MCS scores have been standardized to have a mean=50, SD=10 in the general healthy US population (see, e.g., Ware, J., M. Kosinski, and J. Dewey, How to Score Version 2 of the SF-36 Health Survey (Standard & Acute Forms). 3rd ed. 2000, Lincoln, R.I.: QualityMetric).
A patient was classified as a responder for the treatment of pain of fibromyalgia if he or she reached Visit Tx15 and satisfied the following criteria: • Greater than or equal to 30% in pain reduction from baseline; • PGIC rated as “much or very much improved,” (i.e., a score of 1 or 2 on the 1-7 scale at endpoint.)
A patient was classified as a responder for the treatment of FMS if he or she satisfied the responder criteria for the treatment of pain of fibromyalgia and the following additional criterion (at visit Tx15): • Improvement on the SF-36 PCS score from baseline by an amount at least equivalent to the minimal clinically important difference, as defined in the Statistical Analysis Plan.
Table 6 summarizes 3-month results for the Baseline Observation Carried Forward (BOCF), Last Observation Carried Forward (LOCF) and study completer (OC) populations. LOCF is an analysis in which observations are carried forward to the last time point for patients who dropped out. The LOCF analysis treats the carried-forward data as observed data at the last time point. BOCF is an analysis that requires that the patient remain active in the trial to be evaluated for response. If a patient withdrew from the trial for any reason, they were classified as a non-responder irregardless of their pain and global scores at the time of withdrawal. […]

[1] = 100 mg, Visits Tx3-Tx15, LOCF, intent to treat

## CCN(CC)C(=O)C1(c2ccccc2)CC1CN (racemic) [milnacipran, Z-2-aminomethyl-1-phenyl-N,N-diethylcyclopropanecarboxamide hydrochloride]
3-months, BOCF
  Composite Pain: number of responders: 91
  Composite Syndrome: number of responders: 58
  PGIC Component: number of responders: 125
  Pain Component: number of responders: 124
  SF36 PCS Component: number of responders: 108
3-months, LOCF
  Composite Pain: number of responders: 103
  Composite Syndrome: number of responders: 65
  PGIC Component: number of responders: 138
  Pain Component: number of responders: 149
  SF36 PCS Component: number of responders: 129
100 mg or 200 mg
  physical function in patients with fibromyalgia compared to placebo (in words): surprisingly and effectively improves physical function
100 mg, 3-months, BOCF
  Composite Pain: responder rate: (22.81%)
  Composite Pain: responder rate difference from placebo (unlabelled line): 6.35%
  Composite Syndrome: responder rate: (14.54%)
  Composite Syndrome: responder rate difference from placebo (unlabelled line): 5.81%
  PGIC Component: responder rate: (31.33%)
  PGIC Component: responder rate difference from placebo (unlabelled line): 8.39%
  Pain Component: responder rate: (31.08%)
  Pain Component: responder rate difference from placebo (unlabelled line): 5.89%
  SF36 PCS Component: responder rate: (27.07%)
  SF36 PCS Component: responder rate difference from placebo (unlabelled line): 5.62%
100 mg, 3-months, LOCF
  Composite Pain: responder rate: (25.81%)
  Composite Pain: responder rate difference from placebo (unlabelled line): 7.61%
  Composite Syndrome: responder rate: (16.29%)
  Composite Syndrome: responder rate difference from placebo (unlabelled line): 6.56%
  PGIC Component: responder rate: (34.59%)
  PGIC Component: responder rate difference from placebo (unlabelled line): 9.65%
  Pain Component: responder rate: (37.34%)
  Pain Component: responder rate difference from placebo (unlabelled line): 8.66%
  SF36 PCS Component: responder rate: (32.33%)
  SF36 PCS Component: responder rate difference from placebo (unlabelled line): 6.89%
100 mg, 3-months, OC
  Composite Pain: m/n = # of responders/# of patients included: 91/236
  Composite Pain: responder rate: (38.56%)
  Composite Pain: responder rate difference from placebo (unlabelled line): 13.37%
  Composite Syndrome: m/n = # of responders/# of patients included: 58/236
  Composite Syndrome: responder rate: (24.58%)
  Composite Syndrome: responder rate difference from placebo (unlabelled line): 11.22%
  PGIC Component: m/n = # of responders/# of patients included: 125/263
  PGIC Component: responder rate: (47.53%)
  PGIC Component: responder rate difference from placebo (unlabelled line): 15.70%
  Pain Component: m/n = # of responders/# of patients included: 124/237
  Pain Component: responder rate: (52.32%)
  Pain Component: responder rate difference from placebo (unlabelled line): 13.92%
  SF36 PCS Component: m/n = # of responders/# of patients included: 108/263
  SF36 PCS Component: responder rate: (41.06%)
  SF36 PCS Component: responder rate difference from placebo (unlabelled line): 11.40%
100 mg, LOCF
  time-weighted average (AUC) of SF-36 PCS Scores, Difference from Placebo: 16.78
  time-weighted average (AUC) of SF-36 PCS Scores, LS Mean: 425.22
100 mg, OC
  time-weighted average (AUC) of SF-36 PCS Scores, Difference from Placebo: 20.22
  time-weighted average (AUC) of SF-36 PCS Scores, LS Mean: 437.91
100 mg, Tx 15, Observed Cohort
  Mean Change from Baseline in GHP SF-36 domain score: 6.0
  Mean Change from Baseline in PAIN SF-36 domain score: 15.9
  Mean Change from Baseline in PCS Score at Tx 15: 5.0
  Mean Change from Baseline in PFI SF-36 domain score: 6.8
  Mean Change from Baseline in ROLP SF-36 domain score: 13.7
[1]
  time-weighted average (AUC) of SF-36 PCS Scores, Mean: 423.86
  time-weighted average (AUC) of SF-36 PCS Scores, Median: 418.2
100 mg, Visits Tx3-Tx15, OC, intent to treat
  time-weighted average (AUC) of SF-36 PCS Scores, Mean: 435.76
